Results: article PMC11245370, “3-Position Biaryl Endochin-like Quinolones with Enhanced Antimalarial Performance” (ACS Infectious Diseases, 2024)

What was measured:
[1] = tested on: P. falciparum ELQ-300-resistant D1 clone; experiment: microbe, parasite or virus in culture; format: cell-based; conditions: Plasmodium falciparum, 72 h, read-out: P. falciparum IC50 values, D1
[2] = tested on: P. falciparum atovaquone-resistant clinical isolate Tm90-C2B; experiment: SYBR Green I antiplasmodial assay, Tm90-C2B; format: cell-based; conditions: Plasmodium falciparum, TM90, 72 h, read-out: P. falciparum IC50 values, Tm90-C2B
Experimental: (§1) All of this information is stored in a database with information relating to chemical structure, physical chemical properties, cross resistance patterns, mammalian cell cytotoxicity, enzyme inhibitor profiles, and synthesis details. Pharmacological data and in vivo efficacy data are also stored in the database for molecules of particular interest. […] We synthesized the compound in an initial batch size of about 800 mg as described above. […] Fluorescence readings were captured with a fluorescence plate reader and processed by nonlinear regression analysis using the GraphPad Prism software to provide IC50 values for each determination. Stock solutions were freshly prepared daily in DMSO in glass vials.
(§2) Laboratory strains of P. falciparum were cultured in human erythrocytes by standard methods. The parasites were grown in culture medium with fresh human erythrocytes maintained at 2% hematocrit at 37 °C in low-oxygen conditions (5% O2, 5% CO2, 90% N2). […] Cultures were maintained at less than 10% parasitemia by transfer of infected cells to fresh erythrocytes and culture medium every 3 or 4 days.
(§3) SYBR green I assay. In vitro antiplasmodial activity was assessed using a published SYBR Green I fluorescence-based method.[20] The drugs were added to 96-well plates using twofold serial dilutions in complete medium. […] Asynchronous P. falciparum parasites were diluted with uninfected erythrocytes and added to the wells to give a final culture volume of 100 μL at 2% hematocrit and 0.2% parasitemia. […] The parasites were then lysed by adding 100 μL of SYBR green I lysis buffer containing 0.2 μL/ml SYBR green I dye (10,000×) in 20 mM Tris (pH 7.5), 5 mM EDTA, 0.008% (wt/vol) saponin, and 0.08% (v/v) Triton X-100. The plates were incubated at room temperature for an hour in the dark. […] If the IC50 value fell outside of the initially tested range, then the range was adjusted up or down, and the assay was repeated twice.

[3] = tested on: P. falciparum drug-sensitive D6 strain; experiment: SYBR Green I antiplasmodial assay, D6 strain; format: cell-based; conditions: Plasmodium falciparum, D6, 72 h, read-out: P. falciparum IC50 values, D6
Experimental: as §1, §2, §3

[4] = HepG2 cytotoxicity / mitochondrial toxicity (TiterGlo ATP, galactose medium); conditions: human
Experimental: HepG2 was routinely cultured in DMEM containing 10% fetal calf serum and 100 IU/mL penicillin and 100 μg/mL streptomycin (complete medium). For studies to investigate the potential for mitochondrial toxicity by selected 3-biaryl-ELQs, the medium contained galactose rather than glucose to force the cells to produce ATP through oxidative phosphorylation, which in turn makes them sensitive to mitochondrial toxicants.[36] […] After this period, the culture medium was removed, and the cells were shifted to galactose-containing medium with test drugs at concentrations ranging from 0 to 10 μM. Drug dilutions were prepared from DMSO stocks into galactose-containing medium. […] After incubation, the contents of each well were removed, and 25 μL of TiterGlo II reagent mix containing luciferase, detergent, and luciferin was added to each well along with 25 μL of culture medium. […] At this point, the plates were read on a luminometer (SpectraMax iD3 iD5Multi-Mode Microplate Reader), and the data were processed to yield the percent decrease in ATP production relative to no-drug control values. These values reflect the potential damage caused by mitochondrial toxicants due to reduced intracellular ATP levels caused by interference with the human mitochondrial electron transport chain. Assays were set up in triplicate.

[5] = tested on: P. falciparum multidrug-resistant Dd2 strain; experiment: microbe, parasite or virus in culture; format: cell-based; conditions: Plasmodium falciparum, DD2, 72 h, read-out: P. falciparum IC50 values, Dd2
Experimental: as §1, §2, §3

SMILES | IC50 [1] | IC50 [2] | IC50 [3] | IC50 at 24 h [4] | IC50 [5] | IC50 at 24 h ([4]; HepG2 cells)
Cc1[nH]c2cc(F)cc(F)c2c(=O)c1-c1ccc(Oc2ccc(OC(F)(F)F)cc2)cc1 [ELQ-400, reference compound] | 0.73 nM | 19.3 nM | 0.19 nM | 10000 nM | 0.44 nM | 
COc1cc2[nH]c(C)c(-c3ccc(-c4ccc(OC(F)F)cc4)cc3)c(=O)c2cc1Cl [ELQ-600, 6-Chloro-3-(4′-(difluoromethoxy)-[1,1′-biphenyl]-4-yl)-7-methoxy-2-methylquinolin-4(1H)-one] | > 250 nM | 5.9 nM | 3.9 nM |  | 13.4 nM | > 10000 nM
Cc1[nH]c2cc(F)cc(F)c2c(=O)c1-c1ccc(-c2ccc(OC(F)(F)F)cc2)cc1 [ELQ-601, 5,7-Difluoro-2-methyl-3-(4′-(trifluoromethoxy)-[1,1′-biphenyl]-4-yl)quinolin-4(1H)-one] | 9.3 nM | 24.5 nM | 5.9 nM |  | 14.3 nM | 
COc1cc2[nH]c(C)c(-c3ccc(-c4ccc(C#N)cc4)cc3)c(=O)c2cc1Cl [ELQ-602, 4′-(6-Chloro-7-methoxy-2-methyl-4-oxo-1,4-dihydroquinolin-3-yl)-[1,1′-biphenyl]-4-carbonitrile] | > 250 nM | 10.9 nM | 4.8 nM |  | 25.2 nM | 
COc1cc2[nH]c(C)c(-c3ccc(-c4ccc(C)cc4)cc3)c(=O)c2cc1Cl [ELQ-603, 6-Chloro-7-methoxy-2-methyl-3-(4′-methyl-[1,1′-biphenyl]-4-yl)quinolin-4(1H)-one] | > 250 nM | 1.5 nM | 1 nM |  | 3.8 nM | 
COc1ccc(-c2ccc(-c3c(C)[nH]c4cc(OC)c(Cl)cc4c3=O)cc2)cc1 [ELQ-645, 6-Chloro-7-methoxy-3-(4′-methoxy-[1,1′-biphenyl]-4-yl)-2-methylquinolin-4(1H)-one] | > 250 nM | 6 nM | 5 nM |  | 10.2 nM | 
Cc1[nH]c2ccccc2c(=O)c1-c1ccc(-c2ccc(OC(F)(F)F)cc2)cc1 [ELQ-649, 2-Methyl-3-(4′-(trifluoromethoxy)-[1,1′-biphenyl]-4-yl)quinolin-4(1H)-one] | 15.8 nM | 6 nM | 7.9 nM |  | 8.3 nM | 
COc1cc2[nH]c(C)c(-c3ccc(-c4ccc(C(C)(C)C)cc4)cc3)c(=O)c2cc1Cl [ELQ-651, 3-(4′-(tert-Butyl)-[1,1′-biphenyl]-4-yl)-6-chloro-7-methoxy-2-methylquinolin-4(1H)-one] | > 250 nM | 0.49 nM | 1.1 nM |  | 1.4 nM | 
COc1cc2[nH]c(C)c(-c3ccc(-c4ccc(Oc5ccc(OC(F)(F)F)cc5)cc4)cc3)c(=O)c2cc1Cl [ELQ-653, 6-Chloro-7-methoxy-2-methyl-3-(4′-(4-(trifluoromethoxy)phenoxy)-[1,1′-biphenyl]-4-yl)quinolin-4(1H)-one] | > 250 nM | 0.88 nM | 1.5 nM |  | 1.4 nM | 
Cc1[nH]c2c(c(=O)c1-c1ccc(-c3ccc(OC(F)(F)F)cc3)cc1)CCCC2 [ELQ-660] | 22.2 nM | 7.9 nM | 14.8 nM |  | 12.8 nM | 
COc1cc2[nH]c(C)c(-c3ccc(-c4cccc(S(F)(F)(F)(F)F)c4)cc3)c(=O)c2cc1Cl [ELQ-662, 6-Chloro-7-methoxy-2-methyl-3-(3′-(pentafluorosulfanyl)-[1,1′-biphenyl]-4-yl)quinolin-4(1H)-one] | > 250 nM | 1.4 nM | 0.7 nM |  | 1.3 nM | 
COc1cc2[nH]c(C)c(-c3ccc(-c4ccc(S(F)(F)(F)(F)F)cc4)cc3)c(=O)c2cc1Cl [ELQ-663, 6-Chloro-7-methoxy-2-methyl-3-(4′-(pentafluorosulfanyl)-[1,1′-biphenyl]-4-yl)quinolin-4(1H)-one] | > 250 nM | 3.8 nM | 1.6 nM |  | 3.2 nM | 
C=C(C)[C@H]1Cc2c(ccc3c2O[C@@H]2COc4cc(OC)c(OC)cc4[C@@H]2C3=O)O1 [rotenone, reference compound] |  |  |  | < 1000 nM |  | 
